The results in this text go back to patent US7687603B2, “Guanidinium delivery carriers” (priority 2005, dated 2010).

Molecules are shown by their SMILES. Numbered stars: 1 amine (or outer) side, 2 acyl side, 3 side chain; on linkers, the order of the positions; unused ones are H or OH. Side chains are listed from the residue outwards. Peptide text beside a SMILES is read from it. * marks the point of attachment. Doxorubicin(3'-N) = COc1cccc2c1C(=O)c1c(O)c3c(c(O)c1C2=O)C[C@@](O)(C(=O)CO)C[C@@H]3O[C@H]1C[C@H](N*)[C@H](O)[C@H](C)O1; Suc = O=C(CCC(=O)[*:2])[*:1]

Data set [1] can be described thus: Body weight changes after intra-tumor administration. In kind it is in vivo, nu/nu athymic mice. The following applies: 21 days after intra-tumor administration. The protocol: (§1) Male nu/nu athymic mice (6-7 weeks old; 22-25 g; available from Charles River Laboratories) were inoculated subcutaneously on the right flank with 1.1×10^6 Hela and PC-3 cells to obtain xenografs of human PC-3 prostate cancer.
(§2) Approximately 4 days after inoculation, the four groups of five mice were administered a solution containing saline, doxorubicin, PTD, or DOX-PTD (e.g., 0.103×10^−4 mol) via intra-tumor injection or intravenously. The solution was administered once a week until the total volume administered equaled ˜50 μL/mouse. Size measurements of the tumor and the body weight of the mice were taken every other day. A saline solution was used as a control.

The subject of data set [2] is B16F0 cells. As to the kind of experiment: IC50% study. It counts as cell-based. As to the method: B16F0 cells (obtained from American Type Culture Collection, ATCC) were split into 96 well plates and incubated at 37° C. under 5% CO2. After 24 hours, BMPC-Pt was added to each well. The fluorescence of each well was measured using two wavelength filters (450 nm and 528 nm) before and several times after BMPC-Pt was added (24, 48, and 72 hours). Using measurements, the fluorescence intensity net increase ratio was calculated and the results are summarized in Table 3 and shown in FIGS. 19 and 20.

Data set [3] concerns B16F0 cells. As to the kind of experiment: IC50% study. To be noted: 96 hours. In kind it is cell-based.
The test system of a further data set is PC-3 cells. Briefly: Cytotoxicity assay, live/dead cell staining. In kind it is cell-based. The protocol: Prostate cancer cell lines (PC-3 cells) were maintained in 12-F medium containing 10% fetal bovine serum, 100 units/mL penicillin and 100 μg/mL streptomycin at 37° C. under 5% CO2 and 100% humid condition. To avoid confluency due to the short doubling time (˜20 hrs), the cells were split every 3-4 days.
The PC-3 cells were plated in 6-well tissue culture plates (5×10^5 cells/well) and incubated overnight in 12-F medium with 10% FBS. For each well, an aliquot of 200 μl Doxorubicin-protein transduction domain (DOX-PTD) solution at same mole concentration (0.2 mg/per well) was added. The cells were then incubated at 37° C. in 5% CO2 for 2 hrs.
After incubation, the live and dead cells were counted using cell staining analysis according to the protocol provided by the manufacturer. The dead cells stain red while the live cells stain green. The green and red fluorescent signals from the cells were observed under a fluorescent microscope (Olympus, filter 570 nm-605). The percentage of live cells in the cultures was determined from counts of three fields.

The subject of data set [4] is xenografs of human PC-3 prostate cancer. As to the kind of experiment: DOX-PTD anti-tumor treatment in vivo study, tumor size. Details: species or system nu/nu athymic mice. The following applies: intra-tumor administration, Dosedox=0.2 mg/kg, FIGS. 14 and 15. As to the method:
as §1, §2

Another data set relates to mammalian cells. Briefly: MTT cytotoxicity study. It counts as cell-based. The protocol:
(§3) Cytotoxicity of PTD carriers were evaluated in mammalian cells using 3-[4,5 dimethylthiazol-2-yl]-2,5-diphenyltetrazolium bromide (MTT). After inducing cytotoxicity (˜4 hrs) by routine methods, 10 μl of MTT solution (5.0 mg/ml in PBS, Sigma) was added to each well, and incubated at 37° C. for 3 hrs. The medium was then removed and 200 μl dimethyl sulfoxide (DMSO) was added into each well to dissolve the formazan crystals produced by living cells. The absorbance of the solution was measured at 570 nm. Cell viabilities were calculated using the equation: Viability (%)={Abs570 (sample)/Abs570 control}. A control reaction was run under the same conditions except for the addition of Dox-PTD.

The nature of a further data set: MTT cytotoxicity study. It counts as cell-based. To be noted: mammalian cells, FIG. 13, read-out: cells survived (viability). As to the method: as §3
The test system of another data set is Hela 705 cells. Briefly: Transduction assay (in vitro), fluorescence microscope. It counts as cell-based. To be noted: 30 min at 37° C., Streptavidin-FITC, FIG. 4. The protocol: The transduction efficiency of compound 9 from Example 1 and compound 11 from Example 2 were analyzed. Hela 705 cells were seeded at 1.5×10^4/well in 96-well plate and cultured overnight (about 70% confluenced). The media was discarded and the cells rinsed with PBS. Biotin-labeled test compounds (dissolved in PBS, pH: 7.4) were applied to culture(s) and incubated for 30 min at 37° C. The media was carefully discarded and the cells rinsed with PBS. The cells were fixed in freshly prepared 4% paraformaldehyde for 10 min at 4° C. The cells were rinsed and incubated with a blocking reagent (10% BSA containing 0.5% Triton X-100 in PBS) for 30 min at 37° C. The cells were again rinsed with PBS and incubated with Streptavidin-FITC for 30 min at room temperature. The cells were then rinsed with PBS and observed under fluorescence microscope.
The transduction activity of the disulfide linked HA compounds 13 and 14 from Example 4 were tested on Hela 705 cells following the procedure as mentioned above. FITC conjugated anti-HA antibody was applied for visualization.

A further data set has as its system Mouse skin tissue. Briefly: In vivo transdermal delivery assay. The following applies: nude mice skin, 100 μl of 1 mM in PBS, 30 min, FIG. 9. As to the method:
Compounds 9 and 11 from Examples 1 and 2 were tested in vivo. In vivo evaluation was conducted with a transdermal delivery assay on nude mice (NU/NU ♀). Nude mice (female, 6 weeks old, from Charles River) were anesthetized with 50 μl cocktail of Ketaset 25 mg/ml, Xylazine 5 mg/ml (i.m.). The skin was wiped with saline and a 100 μl solution of the test compounds (1 mM in PBS) was applied. A plastic ring was used to isolate the test solution and vaseline was rubbed outside of the ring. After 30 min incubation, the animal was sacrificed under deep anesthesia and the skin was removed. Mouse skin tissue was immediately embedded in OTC medium, cut into 5 μm on a cryostat and collected on slides, and stored at −70° C. The tissue was fixed in freshly prepared 4% paraformaldehyde in PBS for 10 min at 4° C. The tissue was then rinsed in PBS 2×5 min and incubated with 10% BSA containing 0.5% Triton X-100 in PBS for 30 min at 37° C. The samples were incubated with Streptavidin-FITC (diluted in 1% BSA containing 0.05% Triton X-100 in PBS) overnight at 4° C. […] The samples were rinsed twice in PBS 2×5 min and tap water and mounted with anti-fading mounting medium and observed under fluorescence microscope or confocal imaging analysis.

Regarding `COc1cccc2c1C(=O)c1c(O)c3c(c(O)c1C2=O)C[C@@](O)(C(=O)CO)C[C@@H]3O[C@H]1C[C@H](N)[C@H](O)[C@H](C)O1` [DOX, doxorubicin, reference compound], the “body weight difference between groups” value in [1] is on record as “no significant difference”.
`CC(=O)N[C@@H](CCCNC(=N)N)C(=O)N[C@@H](CCCNC(=N)N)C(=O)N[C@@H](CCCCNC(=O)[C@H](CCCNC(=N)N)NC(=O)[C@H](CCCNC(=N)N)NC(=O)CCC(=O)NC1CC(=O)[O][Pt]2([NH]C3CCCCC3[NH]2)[O]C1=O)C(=O)N[C@@H](CCCNC(=N)N)C(=O)N[C@@H](CCCNC(=N)N)C(=O)N[C@@H](CCCNC(=N)N)C(=O)N[C@@H](CCCNC(=N)N)C(N)=O` (some centres unmarked) [BMPC-Pt]: the IC50 amounted to 128 µM with B16F0 cells [2] (24 hours), 51.6 µM in the data set on B16F0 cells [2] (48 hours), 22.3 µM in the data set on B16F0 cells [2] (72 hours) and 12.5 µM in the data set with B16F0 cells [3].
Consider `COc1cccc2c1C(=O)c1c(O)c3c(c(O)c1C2=O)C[C@@](O)(C(=O)CO)C[C@@H]3O[C@H]1C[C@H](NC(=O)CCC(=O)N[C@@H](CCCNC(=N)N)C(=O)N[C@@H](CCCNC(=N)N)C(=O)NCCCC[C@H](NC(=O)[C@H](CCCNC(=N)N)NC(=O)[C@H](CCCNC(=N)N)NC(C)=O)C(=O)N[C@@H](CCCNC(=N)N)C(=O)N[C@@H](CCCNC(=N)N)C(=O)N[C@@H](CCCNC(=N)N)C(=O)N[C@@H](CCCNC(=N)N)C(N)=O)[C@H](O)[C@H](C)O1` [DOX-PTD] (Ac-RRK([Arg-Arg-Suc-Doxorubicin(3'-N)])RRRR-NH2), for which the “number of live cells” value in the data set on PC-3 cells (0.2 mg/per well, 2 hrs, FIGS. 11 and 12) is on record as “less than with Dox alone”. Further, the “penetration into the PC-3 cells” value with PC-3 cells (inferred from live cell counts) is “greater penetration into the PC-3 cells compared to Dox alone”. Also, the tumor size result in data set [4] was “increased in size less than the tumor injected with Dox alone”. Moreover, the cytotoxicity entry in the data set with mammalian cells was “extremely high”. The viability in “MTT cytotoxicity study” was less than 40%. In addition, the “body weight difference between groups” value in data set [1] is on record as “no significant difference”.
For the molecule `N.N.O=C([O-])C1(C(=O)[O-])CCC1.[Pt+2]` [Carboplatin, reference compound], the IC50 with B16F0 cells [2] (24 hours) came to 110 µM; with B16F0 cells [2] (48 hours), 36.5 µM; in the data set on B16F0 cells [2] (72 hours), 24.5 µM; in the data set with B16F0 cells [3] it was 4.5 µM.
For the molecule `N=C(N)NCCCC(N)C(=O)NC(CCCNC(=N)N)C(=O)NC(CCCNC(=N)N)C(=O)NCCCCC(NC(=O)C(CCCNC(=N)N)NC(=O)C(CCCNC(=N)N)NC(=O)C(N)CCCNC(=N)N)C(=O)NCCCCC(NC(=O)C(CCCNC(=N)N)NC(=O)C(CCCNC(=N)N)NC(=O)CCCC[C@@H]1SC[C@@H]2NC(=O)N[C@@H]21)C(N)=O` (some centres unmarked) [compound 11], the “transduction efficiency compared to vehicle (PBS)” value with Hela 705 cells is “dramatic transduction efficiency”. Further, in the data set with Mouse skin tissue, the “transdermal delivery efficiency compared to vehicle (PBS)” value was “dramatic transdermal delivery efficiency”.

What is called IC50 is the concentration that inhibits the measured activity by half. A high value points to a need for much substance. One may read the viability as a read-out of living cells in per cent, often relative to untreated cells.
